The subject of series [1] is SW480 (colon cancer) cells. The series can be described thus: MTT antiproliferative assay, SW480. The series is classed as cell-based, human. The conditions noted are these: exposure time 96 h, means ± standard deviations. On the procedure: CH1/PA-1 (ovarian teratocarcinoma) cells were a generous gift from Lloyd R. Kelland (CRC Centre for Cancer Therapeutics, Institute of Cancer Research, Sutton, UK). A549 (non-small cell lung cancer), SW480, and HCT116 (both colon cancer) cells were kindly provided by the Institute of Cancer Research, Department of Medicine I, Medical University of Vienna, Austria. All cell lines were grown as monolayer cultures in Eagle’s MEM supplemented with L-glutamine (4 mM), sodium pyruvate (1 mM) and 1% (v/v) non-essential amino acid solution (all from Sigma-Aldrich) and 10% (v/v) heat-inactivated fetal calf serum (FCS, BioWest) in 75-cm^2 flasks (Starlab) at 37 °C under a humidified atmosphere containing 5% CO2 in air. […] After 24 h, test compounds were dissolved in DMSO (Fisher Scientific), serially diluted in complete MEM not to exceed a final DMSO content of 0.5% (v/v) and added in 100 μL per well. After 96 h, the drug-containing medium was replaced with 100 µL of RPMI 1640/MTT mixture, i. e., 6 parts of RPMI 1640 medium (Sigma-Aldrich; supplemented with 10% heat-inactivated fetal bovine serum and 4 mM L-glutamine), 1 part of MTT solution in phosphate-buffered saline (5 mg/mL; both from Sigma-Aldrich). After incubation for 4 h, the MTT-containing medium was replaced with 150 μL DMSO per well to dissolve the formazan product formed by viable cells. Optical densities at 550 nm (and at the reference wavelength of 690 nm) were measured with a microplate reader (ELx808, Bio-Tek). The IC50 values relative to untreated controls were interpolated from concentration–effect curves. At least three independent experiments were performed, each with triplicates per concentration level.
For orientation: Tetrazolium dyes change colour on reduction, which living cells bring about.

Another series concerns SW480 cells. Nature of the series: Cellular accumulation by ICP-MS quantification of ruthenium (or platinum). Type of series: cell-based, human. As to conditions: 50 µM; for cellular ruthenium values: ICP-MS; for cellular accumulation, fg Ru or Pt/Cell: exposure time 2 h, ICP-MS of ruthenium. On the procedure:
Ruthenium accumulation was measured by means of inductively coupled plasma mass spectrometry (ICP-MS) upon 2 h exposure of SW480 cells to 50 µM of each compound.
Cellular accumulation of the compounds was studied based on a previously described method with modifications as follows: SW480 cells with a number of 1.8 × 10^5 per well were seeded into 12-well plates in aliquots of 1 mL complete MEM and incubated at 37 °C for 24 h. Then, cells were exposed for 2 h at 37 °C to 50 μM solutions of the test compounds (containing 0.5% DMSO) in 500 µL of fresh complete MEM upon exchange of the medium. Afterwards, cells were washed three times with PBS, and lyzed with 0.4 mL sub-boiled HNO3 per well for 1 h at room temperature. Ruthenium content was quantified by ICP-MS using an Agilent 7500ce quadrupole ICP-MS instrument (Agilent Technologies, Waldbronn, Germany) equipped with a CETAC ASX-520 autosampler (Nebraska, USA) and a MicroMist nebulizer. Ruthenium and indium standards were obtained from CPI International (Amsterdam, The Netherlands). The instrument was equipped with nickel cones and operated at an RF power of 1560 W, with argon as the plasma gas (15 L/min), carrier gas (1.0–1.1 L/min) and make-up gas (0.1–0.2 L/min). The Agilent MassHunter software package (Workstation Software, Version B.01.01, Build 123.11, Patch 4, 2012) was used for data processing. Results are based on at least three independent experiments, each comprising triplicate samples. The instrument was tuned on a daily basis for maximum sensitivity and doubly charged species as well as oxide rates were <5%.

Series [2] is described as follows: pH-dependent stability by UV-VIS spectroscopy. As to conditions: for precipitation at pH 7.4: 40 µM, PBS, 1% DMSO, loss of absorbance without change in spectrum. The series is classed as physicochemical. From the text:
The stability under physiological conditions is a vital part of the process of developing a new drug. Additionally, N-donor leaving groups equip piano-stool complexes with an elegant pH-switch. Theoretically, they can be protonated at lower pH values, as found in the extracellular matrix of the tumor tissue, and are therefore cleaved off. The resulting aqua complex is highly reactive and able to interact with biological targets. To put this theory to the test, the stability of complexes 1a–g was investigated at different pH values, i.e., 5.5, 6.5, 7.4, and 8.5. Spectra were recorded over a period of 24 h, with 40 µM solutions (1% DMSO in water) in the range of 250–700 nm. The chosen pH values represented the physiologically relevant conditions; a pH value of 8.5 is the highest pH found in the human body (in the duodenum), a pH value of 7.4 is the average pH of human blood, and a pH value of 6.5 is the pH found in the extracellular matrix of solid tumors.
Stability measurements were performed on a Lambda 35 UV/VIS spectrometer (Perkin Elmer, Boston, MA, USA). Samples of complexes 1a–g: 40 µM in PBS (pH 7.4) and isotonic saline phosphate buffer with 0.9% sodium chloride (pH 8.5), diluted isotonic acetic acid (pH 5.5), and acetate buffer (pH 6.5) with 1% DMSO. UV-VIS spectra were recorded hourly for 24 h at 37 °C. Temperature control was maintained by a PTP-6 Peltier System (Perkin Elmer, Boston, MA, USA).

Series [3] in a line: Solubility in minimal essential medium (MEM, 1% DMSO). As to the method:
Melting points were determined with a Büchi Melting Point M-560. The solubility was determined by dissolving the compound in DMSO and subsequent dilution to a final concentration of 1% DMSO/MEM solution (minimal essential medium) and 1% DMSO/MSP solution (medium with serum proteins). The highest concentrated dilution, where no precipitation of the compound occurred, was the determined solubility. The NMR spectra were recorded at 25 °C using a Bruker FT-NMR spectrometer Avance III^TM 500 MHz. ^1H-NMR spectra were measured at 500.10 MHz and ^13C-NMR spectra were recorded at 125.75 MHz in deuterated methanol (CD3OD). 2D-NMR spectra were measured using a gradient-enhanced mode. CHN elemental analyses were performed with a Eurovector EA3000 Elemental Analyzer in the microanalytical laboratory of the University of Vienna. Single crystals of complexes 1b–1f suitable for X-ray diffraction analysis were grown by precipitation from DCM/Et2O at 4 °C. The X-ray intensity data were measured on Bruker D8 Venture or X8 APEX II diffractometer equipped with multilayer monochromators, Mo K/α INCOATEC microfocus sealed tubes and Kryoflex cooling devices (Bruker, Karlsruhe, Germany). The structures were solved by direct methods and refined by full-matrix least-squares techniques. Non-hydrogen atoms were refined with anisotropic displacement parameters. Hydrogen atoms were inserted at calculated positions and refined with a riding model separately as rotating groups. The following software was used: Bruker SAINT software package using a narrow-frame algorithm for frame integration, SADABS [33] for absorption correction, OLEX2 [34] for structure solution, refinement, molecular diagrams and graphical user-interface, Shelxle for refinement and graphical user-interface, SHELXS-2013 [36] for structure solution, SHELXL-2013 [37] for refinement, and Platon for symmetry check. Electronspray ionization mass spectra were recorded on a Bruker AmaZon SL ion trap mass spectrometer (Bruker Daltonics GmbH, Hamburg, Germany).

Structures are written as SMILES. Values joined by “and” are separate entries in the source; they are usually repeats but may differ in a detail not shown here. Identical values can stand only once.

In series [1], `Cc1ccc(C(C)C)cc1.O=C1C2=C(NCc3ccccc3)[O][Ru-]([Cl])[O+]=C2c2ccccc21` [1a] returned an IC50 of 12.4 ± 0.4 µM. Also, in the series with SW480 cells (2 h), the “cellular ruthenium accumulation relative to complex 1d” value is “almost fiftyfold lower” and the cellular ruthenium values is < 10 fg/cell. For the same compound, the “cellular accumulation, fg Ru or Pt/Cell” value in the series on SW480 cells was 8.4 ± 2.8 fg Ru or Pt/Cell. For the same compound, in series [2] (aquation to the aqua complex), the “hydrolysis in aqueous systems” value is on record as “hydrolyzed quickly to the more reactive aqua complex”.

In series [1], `Cc1ccc(C(C)C)cc1.Cn1ccnc1.F[P-](F)(F)(F)(F)F.O=C1C(=C(NCc2ccccc2)[O][Ru+])C(=O)c2ccccc21` [1b] returned a 50% inhibitory concentration (IC50) of 10.9 ± 1 µM. Also, the “cellular accumulation, fg Ru or Pt/Cell” value in the series with SW480 cells is on record as 97 ± 28 fg Ru or Pt/Cell. Moreover, in series [3], the solubility is 0.30 mg/mL and 0.40 mM.

For `Cc1ccc(C(C)C)cc1.F[P-](F)(F)(F)(F)F.O=C1C2=C(NCc3ccccc3)[O][Ru-]([n+]3ccc[nH]3)[O+]=C2c2ccccc21` [1c], in series [1], the 50% inhibitory concentration (IC50) was found to be 15.2 ± 0.6 µM. Besides, in the series on SW480 cells, the “cellular accumulation, fg Ru or Pt/Cell” value is listed as 67 ± 27 fg Ru or Pt/Cell. Further, the solubility in series [3] is 0.28 mg/mL and 0.39 mM.

In series [1], `Cc1ccc(C(C)C)cc1.F[P-](F)(F)(F)(F)F.O=C1C2=C(NCc3ccccc3)[O][Ru-]([n+]3c[nH]c4ccccc43)[O+]=C2c2ccccc21` [1d] came in with an IC50 of 8.8 ± 1.3 µM. In addition, the cellular ruthenium values with SW480 cells (2 h) was > 400 fg/cell. The “cellular accumulation, fg Ru or Pt/Cell” value in the series with SW480 cells is 405 ± 128 fg Ru or Pt/Cell. The solubility in series [3] is 0.29 mg/mL and 0.37 mM. The “precipitation at pH 7.4” value in series [2] is listed as “precipitated to some extent”.

Compound `Cc1ccc(C(C)C)cc1.F[P-](F)(F)(F)(F)F.O=C1C2=C(NCc3ccccc3)[O][Ru-]([n+]3cc4ccccc4[nH]3)[O+]=C2c2ccccc21` [1e] came in with an IC50 in series [1] of 16.8 ± 3.1 µM. In the series on SW480 cells, the “cellular accumulation, fg Ru or Pt/Cell” value is 114 ± 35 fg Ru or Pt/Cell. Besides, the solubility in series [3] is 0.06 mg/mL and 0.08 mM. In addition, in series [2], the “precipitation at pH 7.4” value is recorded as “precipitated to some extent”.

Take `Cc1ccc(C(C)C)cc1.F[P-](F)(F)(F)(F)F.O=C1C2=C(NCc3ccccc3)[O][Ru-]([NH+]3CCOCC3)[O+]=C2c2ccccc21` [1g]: the IC50 in series [1] was determined as 9.2 ± 1.8 µM. For the same compound, the “cellular accumulation, fg Ru or Pt/Cell” value with SW480 cells is listed as 123 ± 32 fg Ru or Pt/Cell. In addition, the solubility in series [3] is 0.22 mg/mL and 0.29 mM.

By IC50 is commonly meant the concentration at which inhibition is half-maximal. Read a high IC50 as weaker potency. The solubility is how much of the substance goes into solution per volume. Read a high solubility as much dissolved substance.

Values taken from PMC6651387, “Fine-Tuning the Activation Mode of an 1,3-Indandione-Based Ruthenium(II)-Cymene Half-Sandwich Complex by Variation of Its Leaving Group” (Molecules, 2019).
